Measured values reported in patent US11781119B2, “Variant forms of urate oxidase and use thereof” (Horizon Therapeutics USA, Inc., priority 2005, dated 2023).

Legend:
Type in all cases: biochemical
Conditions in all cases: uric acid; sodium borate buffer, pH 9.2
[1] = system: Pig-baboon chimera (PBC) uricase, recombinant, pig uricase codons 1-225 joined in-frame to codons 226-304 of baboon uricase
Excerpt: Pig-baboon chimera (PBC) uricase was constructed in order to gain higher expression, stability, and activity of the recombinant gene. […] The PBC uricase cDNA consists of the pig uricase codons 1-225 joined in-frame to codons 226-304 of baboon uricase.

[2] = system: Pig-baboon chimera (PBC) uricase variant PBC-ΔNC, recombinant, N-terminal six residues and C-terminal tri-peptide removed, SEQ ID NO. 12
Protocol: (§1) Activity of uricase was measured by a UV method. […] Uricase potency is expressed in activity units per mg protein (U/mg).
(§2) The absorbance change with time (ΔA292 per minute) was derived from the linear portion of the curve.
(§3) The specific activity (potency) of uricase was calculated by dividing the activity in U/ml with protein concentration in mg/ml.

[3] = molecular target: T1, Pig uricase, native, commercial preparation (Sigma) (Sus scrofa, UniProt P16164)
T1 sequence (P16164 1-304): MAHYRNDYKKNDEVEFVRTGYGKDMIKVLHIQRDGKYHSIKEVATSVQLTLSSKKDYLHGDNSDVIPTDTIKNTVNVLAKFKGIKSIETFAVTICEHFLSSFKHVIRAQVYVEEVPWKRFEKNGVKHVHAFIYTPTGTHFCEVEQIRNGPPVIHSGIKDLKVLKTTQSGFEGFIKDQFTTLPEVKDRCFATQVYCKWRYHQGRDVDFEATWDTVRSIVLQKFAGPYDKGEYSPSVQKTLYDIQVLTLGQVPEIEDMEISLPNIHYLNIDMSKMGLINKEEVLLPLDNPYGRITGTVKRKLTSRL
Protocol: as §1, §2, §3

[4] = molecular target: T2, Aspergillus flavus uricase, native, commercial preparation (Merck) (Aspergillus flavus, UniProt Q00511)
T2 sequence (Q00511 1-302): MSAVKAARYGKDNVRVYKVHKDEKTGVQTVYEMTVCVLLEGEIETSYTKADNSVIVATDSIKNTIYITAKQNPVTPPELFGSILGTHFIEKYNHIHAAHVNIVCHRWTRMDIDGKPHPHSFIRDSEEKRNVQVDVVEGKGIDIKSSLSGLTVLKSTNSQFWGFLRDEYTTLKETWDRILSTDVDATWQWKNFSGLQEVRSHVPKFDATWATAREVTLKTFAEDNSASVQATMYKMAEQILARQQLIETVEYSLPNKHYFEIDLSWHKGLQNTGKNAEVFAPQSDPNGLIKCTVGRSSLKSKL
Protocol: as §1, §2, §3

O=c1[nH]c(=O)c2[nH]c(=O)[nH]c2[nH]1 [Uric Acid, uric acid]
Km [1]: 4.87 µM | Km [2]: 4.3 µM | Km [3]: 5.85 µM | Km [4]: 23.5 µM
